Reference: ChEMBL document CHEMBL5136985, “Natural and synthetic β-carboline as a privileged antifungal scaﬀolds” (Eur J Med Chem, 2022)
Converted amounts (≈) assume the structure as drawn. Values belong to the compound of their own block, whether it stands above or below them.

Legend:
Sclerotinia sclerotiorum = experiment: Antifungal activity against Sclerotinia sclerotiorum; assay type: functional, organism-based
Gaeumannomyces graminis = experiment: Antifungal activity against Gaeumannomyces graminis; assay type: functional, organism-based
Bipolaris maydis = experiment: Antifungal activity against Bipolaris maydis relative to control; assay type: functional; parameters: concentration or dose not given beside the values
[1] = test system: Trichophyton interdigitale; experiment: Antifungal activity against Trichophyton interdigitale; assay type: functional
Alternaria solani = experiment: Antifungal activity against Alternaria solani relative to control; assay type: functional; parameters: concentration or dose not given beside the values
Alternaria alternata = experiment: Antifungal activity against Alternaria alternata; assay type: functional
Saccharomyces cerevisiae = experiment: Antifungal activity against Saccharomyces cerevisiae; assay type: functional
Cytospora mali = experiment: Antifungal activity against Valsa mali; assay type: functional
[2] = test system: Colletotrichum gloeosporioides; experiment: Antifungal activity against Colletotrichum gloeosporioides; assay type: functional
Alternaria brassicae = experiment: Antifungal activity against Alternaria brassicae; assay type: functional
Candida albicans [3] = experiment: Antifungal activity against Candida albicans incubated for 24 hrs by well diffusion method; assay type: functional
Candida albicans [4] = experiment: Antifungal activity against Candida albicans; assay type: functional, organism-based; conditions: for MIC: Candida albicans
Sclerotinia [5] = experiment: Antifungal activity against sunflower Sclerotinia rot at 50 ug/ml relative to control; assay type: functional; conditions: dose 50 µg/ml
Fusarium solani [6] = experiment: Antifungal activity against Fusarium solani; assay type: functional, organism-based
Sclerotinia [7] = experiment: Antifungal activity against rape Sclerotinia rot at 50 ug/ml relative to control; assay type: functional; conditions: for Activity: dose 50 µg/ml; for inhibition at 50 µg/mL: Sclerotinia
Rhizoctonia solani = experiment: Antifungal activity against Rhizoctonia solani; assay type: functional, organism-based
Phytophthora litchii = experiment: Antifungal activity against Phytophthora litchii assessed as inhibition of growth rate at 100 mg/L relative to control; assay type: functional
Bipolaris oryzae = experiment: Antifungal activity against Helminthosporium oryzae assessed as inhibition of growth rate at 100 ug/ml by disc diffusion method relative to control; assay type: functional
Aspergillus niger = experiment: Antifungal activity against Aspergillus niger assessed as inhibition of growth rate at 100 ug/ml by disc diffusion method relative to control; assay type: functional
Fusarium solani [8] = experiment: Antifungal activity against Fusarium solani incubated for 72 hrs; assay type: functional, organism-based; conditions: Fusarium solani, 72 h
Curvularia lunata = experiment: Antifungal activity against Curvularia lunata; assay type: functional, organism-based
Candida albicans [9] = experiment: Antifungal activity against Candida albicans incubated for 72 hrs; assay type: functional

SMILES: Cc1nccc2c1[nH]c1ccccc12 [HARMAN]
- Activity (Bipolaris maydis): 36.4%
- MIC [1]: 200 µg/mL (≈ 1100 µM)
- Activity (Alternaria solani): 68.4%

SMILES: Cc1nccc2c1[nH]c1cc(OC(=O)NC(C)C)ccc12
- Activity (Bipolaris maydis): 22.7%
- Activity (Alternaria solani): 21.1%

SMILES: CC(=O)N1CCN(c2ccc(OCC3COC(Cn4ccnc4)(c4ccc(Cl)cc4Cl)O3)cc2)CC1 (stereo unspecified) [KETOCONAZOLE]
- MIC (Alternaria alternata): 12.5 µg/mL (≈ 23.5 µM)
- MIC (Saccharomyces cerevisiae): 2.5 µg/mL (≈ 4.7 µM)
- MIC (Cytospora mali): 12.5 µg/mL (≈ 23.5 µM)
- MIC [2]: 12.5 µg/mL (≈ 23.5 µM)
- MIC (Alternaria brassicae): 12.5 µg/mL (≈ 23.5 µM)

SMILES: C=CCCCCCCCCCOC(=O)c1cc2c([nH]c3ccccc32)c(-c2ccc(OC)cc2)n1
- MIC (Candida albicans [3]): 8.6 µg/mL (≈ 18.3 µM)
- MIC (Candida albicans [4]): 8.6 µg/mL (≈ 18.3 µM)

SMILES: Cc1nccc2c3ccccc3n(Cc3cn(-c4ccc(C(F)(F)F)cc4)nn3)c12
- Activity (Sclerotinia [5]): 86.93%

SMILES: CCCCn1c2ccccc2c2ccnc(-c3nc4ccccc4[nH]3)c21
- Activity (Sclerotinia [7]): 80.46%

SMILES: COc1ccc(-c2nc(NC(=O)NC(=O)c3c(F)cccc3F)cc3c2[nH]c2ccccc23)cc1
- EC50 (Rhizoctonia solani): 277 µg/mL (≈ 586 µM)

SMILES: COc1cc(C2c3[nH]c4ccccc4c3C[C@H]3C(=O)N4CCC[C@H]4C(=O)N23)ccc1O (stereo partly specified)
- MIC (Alternaria alternata): 12.5 µg/mL (≈ 29.9 µM)
- MIC (Cytospora mali): 6.25 µg/mL (≈ 15 µM)
- MIC [2]: 12.5 µg/mL (≈ 29.9 µM)
- MIC (Alternaria brassicae): 6.25 µg/mL (≈ 15 µM)

SMILES: Cc1nccc2c1[nH]c1cc(OC(=O)C(C)(C)C)ccc12
- Activity (Bipolaris maydis): 78.9%
- Activity (Alternaria solani): 66.7%

SMILES: O=C(Nc1ccccn1)c1cc2c([nH]c3ccccc32)c(-c2ccccc2)n1
- inhibition at 100 µg/mL (Phytophthora litchii): 95.9%

SMILES: OCC1=C[C@H](N[C@H]2C[C@H](CO)[C@@H](O[C@@H]3O[C@H](CO)[C@@H](O)[C@H](O)[C@H]3O)[C@H](O)[C@H]2O)[C@H](O)[C@@H](O)[C@@H]1O [VALIDAMYCIN]
- EC50 (Rhizoctonia solani): 198 µg/mL (≈ 397 µM)

SMILES: Oc1ccccc1C1NCCc2c1[nH]c1ccccc21 (stereo unspecified)
- inhibition at 100 µg/mL (Bipolaris oryzae): 19.8%
- inhibition at 100 µg/mL (Aspergillus niger): 21.2%

SMILES: C=CCCCCCCCCCOC(=O)c1cc2c([nH]c3ccccc32)c(-c2ccc(O)cc2)n1
- MIC (Candida albicans [3]): 2.8 µg/mL (≈ 6.13 µM)
- MIC (Candida albicans [4]): 2.8 µg/mL (≈ 6.13 µM)

SMILES: COc1cc(-c2nc(NC(=O)NC(=O)c3c(F)cccc3F)cc3c2[nH]c2ccccc23)cc(OC)c1OC
- EC50 (Rhizoctonia solani): 131 µg/mL (≈ 246 µM)

SMILES: COC(=O)Nc1nc2ccccc2[nH]1 [CARBENDAZIM]
- EC50 (Fusarium solani [8]): 4.34 µM
- Activity (Sclerotinia [5]): 89.77%

SMILES: O=C1[C@@H]2Cc3c([nH]c4ccccc34)C(c3ccc(O)cc3)N2C(=O)[C@@H]2CCCN12 (stereo partly specified)
- MIC (Alternaria alternata): 12.5 µg/mL (≈ 32.3 µM)
- MIC (Cytospora mali): 12.5 µg/mL (≈ 32.3 µM)
- MIC [2]: 12.5 µg/mL (≈ 32.3 µM)
- MIC (Alternaria brassicae): 6.25 µg/mL (≈ 16.1 µM)

SMILES: CCn1c2ccccc2c2ccnc(-c3nc4ccccc4[nH]3)c21
- inhibition at 50 µg/mL (Sclerotinia [7]): 92%

SMILES: Fc1ccc(Cn2c3ccccc3c3ccnc(-c4nc5ccccc5[nH]4)c32)cc1
- Activity (Sclerotinia [7]): 79.89%

SMILES: CC1=NCCc2c1[nH]c1cc(O)ccc21 [HARMALOL]
- MIC (Candida albicans [9]): 750 µg/mL (≈ 3750 µM)

SMILES: COc1cc(C(=O)NC(=S)Nc2cc3c([nH]c4ccccc43)c(-c3cc(OC)c(OC)c(OC)c3)n2)cc(OC)c1OC
- EC50 (Rhizoctonia solani): 293 µg/mL (≈ 486 µM)

SMILES: c1ccc(Cn2c3ccccc3c3ccnc(-c4nc5ccccc5[nH]4)c32)cc1
- inhibition at 50 µg/mL (Sclerotinia [7]): 88.5%

SMILES: CC(C)C1c2[nH]c3ccccc3c2C[C@H]2C(=O)N3CCC[C@H]3C(=O)N12 (stereo partly specified)
- MIC (Alternaria alternata): 12.5 µg/mL (≈ 37 µM)
- MIC (Cytospora mali): 12.5 µg/mL (≈ 37 µM)
- MIC [2]: 12.5 µg/mL (≈ 37 µM)
- MIC (Alternaria brassicae): 12.5 µg/mL (≈ 37 µM)

The remaining lines, values ahead:

- EC50 (Sclerotinia sclerotiorum): 5.38 µM
SMILES: O=C(O)c1cc2c([nH]c3ccccc32)c(-c2ccc(Br)cc2)n1

- EC50 (Gaeumannomyces graminis): 2.85 µM
SMILES: CC(C)c1nc(C(N)=O)cc2c1[nH]c1ccccc12

- EC50 (Sclerotinia sclerotiorum): 12 µM
SMILES: c1ccc(C[C@@H]2COC(c3nccc4c3[nH]c3ccccc34)=N2)cc1

- EC50 (Gaeumannomyces graminis): 2.85 µM
SMILES: NC(=O)c1cc2c([nH]c3ccccc32)c(-c2ccccn2)n1

- EC50 (Fusarium solani [6]): 2.47 µM
SMILES: Cc1ccc([N+]2=Cc3c(c4ccccc4n3C)CC2)cc1

- EC50 (Candida albicans [4]): 0.5 uM/ml
SMILES: C[n+]1ccc2c3ccccc3n(-n3c4ccccc4c4cc[n+](C)cc43)c2c1.[I-].[I-]

- EC50 (Fusarium solani [6]): 2.67 µM
SMILES: Cc1cccc([N+]2=Cc3c(c4cc(C)ccc4n3C)CC2)c1

- EC50 (Sclerotinia sclerotiorum): 15.5 µM
SMILES: CC(C)[C@@H]1COC(c2nccc3c2[nH]c2ccccc23)=N1

- EC50 (Fusarium solani [6]): 2.68 µM
SMILES: Cc1ccc2c(c1)c1c(n2C)C=[N+](c2ccc(Cl)cc2)CC1

- MIC [1]: 50 µg/mL (≈ 210 µM)
SMILES: CC(C)CCc1nccc2c1[nH]c1ccccc12

- EC50 (Fusarium solani [6]): 3.03 µM
SMILES: Cc1cccc([N+]2=Cc3c(c4ccccc4n3C)CC2)c1

- EC50 (Fusarium solani [6]): 3.47 µM
SMILES: Cc1ccc2c(c1)c1c(n2C)C=[N+](c2ccccc2C)CC1

- EC50 (Fusarium solani [6]): 2.35 µM
SMILES: Cc1ccccc1[N+]1=Cc2c(c3ccccc3n2C)CC1

- MIC [1]: 1.6 µg/mL (≈ 5.19 µM)
SMILES: CCCCCCCCCCc1nccc2c1[nH]c1ccccc12

- EC50 (Curvularia lunata): 6.73 µg/mL (≈ 30.6 µM)
SMILES: C#CCn1c2ccccc2c2cc(C)ncc21

- MIC [1]: 100 µg/mL (≈ 446 µM)
SMILES: CC(C)Cc1nccc2c1[nH]c1ccccc12

- EC50 (Curvularia lunata): 4.23 µg/mL (≈ 18.9 µM)
SMILES: Cc1cc2c3ccccc3n(C(C)C)c2cn1

- EC50 (Sclerotinia sclerotiorum): 17.3 µM
SMILES: c1ccc([C@@H]2COC(c3nccc4c3[nH]c3ccccc34)=N2)cc1
